Patent US11666071B2, “Compound salt of N,N-dimethylglycine and an organic acid and composition and use thereof” (GUANGZHOU INSIGHTER BIOTECHNOLOGY CO., LTD., priority 2017, dated 2023)
Where a name gives a salt, the structure may show the parent alone. Marks after values point to notes of the source that are not given here.

Columns and labels:
[1] = High-humidity stability test (hygroscopic weight gain); format: physicochemical; conditions: 25° C.; for hygroscopic weight gain, Day 5 (%) / hygroscopic weight gain, Day 10 (%): RH 95%±1%; for hygroscopicity / status of sample: RH 95%; for hygroscopic weight gain, Day 5 (%) / hygroscopicity / status of sample: day 5
[2] = system: Duroc×Landrace×Large White weaned pigs; test: Zinc salt of N,N-dimethylglycine and fumaric acid in weaned-pig feed; format: in vivo; conditions: 15 days
Text: The pigsty and utensils were disinfected before the experiment. The pigs were kept in pens in the same pigsty under the same breeding conditions during the experiment. […] The groups included a control group, a comparative example and experiment groups 1-6. The control group was provided with only the basic diets, the comparative example was provided with 2500 ppm of zinc oxide, and the experiment groups 1-6 were respectively provided with the basic diets together with the hybrid pellet feed additive product 7 provided by the present invention in different concentrations, as shown in Table 9. […] The experiment was carried out for 15 days. […] The experiment data were analyzed with SPSS18 software.

[3] = system: Duroc×Landrace×Large White weaned pigs; test: Copper salt of N,N-dimethylglycine and fumaric acid on weaned pigs; format: in vivo, pig
Method: The […] utensils were disinfected before the experiment. The pigs were kept in pens in the same […] under the same breeding conditions during the experiment. […] The test was carried out for 15 days. […] The experiment data were analyzed with SPSS18 software.

| Molecule | hygroscopic weight gain, Day 5 (%) [1] [%] | hygroscopic weight gain, Day 10 (%) [1] [%] | hygroscopicity / status of sample [1] | further results |
| --- | --- | --- | --- | --- |
| Calcium salt of N,N-dimethylglycine and p-methylbenzenesulfonic acid [Sample 10] | 2.84 ± 0.23 | 3.01 ± 0.11 | – | – |
| Calcium N,N-dimethylglycinate [Sample 3, reference compound] | 38.40 ± 0.22 | 41.83 ± 0.35 | very high hygroscopicity | – |
| CN(C)CC(=O)O [Sample 6, Calcium salt of N,N-dimethylglycine and sulfuric acid] | 61.72 ± 0.41 | 60.58 ± 0.21 | water-like status | – |
| Zinc salt of N,N-dimethylglycine and fumaric acid [Sample 13] | 2.26 ± 0.09 | 2.76 ± 0.23 | – | effect on the feed intake of weaned pigs ([2]; 55-520 ppm): no significant effect; dose at which reduction of feed conversion ratio is significant and equivalent to high-dose zinc oxide ([2]; weaned pigs): higher than 390 ppm; dose that significantly increases average daily weight gain to the level of 2500 ppm zinc oxide ([2]; weaned pigs): about 260 ppm |
| CN(C)CC(=O)[O-].O=C([O-])c1ccccc1.[Cu+2] [Sample 11] | 2.41 ± 0.07 | 2.81 ± 0.10 | – | – |
| Copper salt of N,N-dimethylglycine and fumaric acid [Sample 14] | 2.56 ± 0.11 | 2.81 ± 0.06 | – | effect on the average daily weight gain of weaned pigs ([3]; 30-100 ppm, 15 days): no significant effect; effect on the feed intake of weaned pigs ([3]; 30-100 ppm, 15 days): no significant effect; reduction of feed conversion ratio compared with the control group ([3]; dose 100 ppm): 8.61%; dose at which feed conversion ratio is significantly reduced ([3]; weaned pigs, 15 days): 30-100 ppm |
| CN(C)CC(=O)[O-].[Na+] [Sample 2, Sodium N,N-dimethylglycinate, reference compound] | 49.09 ± 1.14 | 52.44 ± 0.48 | very high hygroscopicity | – |
| O.O.O.O.O.O=S(=O)([O-])[O-].[Cu+2] [Copper sulfate pentahydrate, reference compound] | – | – | – | ADFI ([3]; dose 250 ppm, 15 days): 94.67 ± 1.33 kg; ADG ([3]; dose 250 ppm, 15 days): 46.38 ± 1.01 kg; FCR ([3]; dose 250 ppm, 15 days): 2.042 ± 0.021^b |
| [O]=[Zn] [Zinc oxide, reference compound] | – | – | – | FCR ([2]; dose 2500 ppm): 1.808 ± 0.018 |
| CN(C)CC(=O)O.Cl [Sample 1, N,N-dimethylglycine hydrochloride, reference compound] | 79.86 ± 0.94 | 80.69 ± 0.59 | very high hygroscopicity | – |
| Calcium salt of N,N-dimethylglycine and fumaric acid [Sample 8] | 2.95 ± 0.22 | 3.25 ± 0.12 | – | – |
| Calcium salt of N,N-dimethylglycine and tetradecanoic acid [Sample 9] | 2.11 ± 0.04 | 2.75 ± 0.32 | – | – |
